According to patent US6949528B1, “Compositions containing lysophosphatidic acids which inhibit apoptosis and uses thereof” (priority 1998, dated 2005):

Test system: C3H/10T1/2 cells
Test: Anti-apoptotic activity assay: serum deprivation of C3H/10T1/2 cells
Format: cell-based
Conditions: for Maximum effect relative to 18:1 LPA: Toxic / lowest concentration at which cytotoxic effects were observed (column Concentration for Max Effect): C3H/10T1/2 cells; for lowest concentration at which cytotoxic effects were observed (column Concentration for Max Effect): compounds exhibiting toxicity; for Concentration for Max Effect / Maximum effect relative to 18:1 LPA / Emax: serum-deprived C3H/10T1/2 cells, 24 hours of treatment; for Emax: Mus musculus, read-out: Maximum effect relative to 18:1 LPA
Excerpt: In order to determine the […] of the claimed invention, the following method of analysis was used. The cell assay is described in detail in U.S. Pat. Nos. 5,637,486, 5,620,888, and 5,681,703, and Tomei et al. (1993) Proc Natl. Aci. 90:853-857. Briefly, mouse fibroblast C3H/10T1/2 cells (clone 8) were obtained from ATCC (Rockville, Md.) and were maintained in exponential growth phase in which the cell cycle is randomly distributed and no cells are arrested in G0, and in quiescence. Exponential growth phase was assured by seeding at 2000 cells per 1 ml (5 ml for 60 mm culture plate) five days prior to the beginning of the experiment. Assays were performed on cells only up to passage 15. At T=0, cultures were transferred to serum-free medium, as an appropriate stimulus, and seed extracts were added. Controls included 10^−7 and 5×10^−8 M 12-O-tetradecanoyl phorbol-13-acetate (TPA) to ensure the responsiveness of the cell culture. The samples were added to serum free medium and sterile filtered prior to addition to the cultures. Assays were performed in triplicate or quadruplicate. Analyses of the cell responses were made between 18 and 28 hours of serum deprivation. Two assays were performed on each cell culture plate consisting of differential cell counts.
1. All non-adherent or loosely adherent cells were removed from the culture dish and counted by appropriate techniques, typically counting by electronic particle counting instrument. These are the apoptotic cells, the serum deprived released cells (SDR), released by the action of cultivation in serum-free medium. Approximately 95% of these released cells are apoptotic as shown by both ultrastructure analysis and DNA fragmentation analysis.
2. The remaining adherent cells (ADH) were exposed to a buffered, typically pH 7.3, balanced salt solution such as a Hanks Balanced Salt Solution without calcium and magnesium salts containing 0.05% trypsin and 0.53 mM ethylene diaminetetraacetic acid (EDTA). Each culture was incubated at either room temperature or 37(C on a rocking platform to ensure uniform distribution of the trypsin reagent over the culture surface. After a standardized period of time, typically 10 minutes, the released cells were removed from each culture dish and measured by the same means as described above, typically electronic particle counting. This ADH cell count is comprised of both trypsin resistant and trypsin sensitive cells as described in U.S. Pat. Nos. 5,637,486, 5,620,888, and 5,681,703.
Anti-apoptotic activity is expressed in the following examples as the calculated concentration of material ((g/ml of media) required to save 50% of the cells released on serum free treatment.
The ability of 18:1-LPA an other LPAs to protect serum-starved cells from apoptotic death was measured using the C3H/10T1/2 cell assay, performed as described in Example 2. The effect of various compounds on the ability of lysophosphatidic acid to protect serum-starved cells from apoptotic death was also measured. Log phase cells were seeded in 60 mm Petri dishes at 175-350 cells per cm2 and maintained in Basal Medium Eagle (BME) supplemented with 10% Heat Inactivated Fetal Bovine Serum (HIFBS). On day 3 the cells were given fresh media. Treatment began on day 5 when the media containing serum was removed and replaced with the LPA mixture to be tested. After 24 hours of treatment, day 6, serum deprived released (SDR) cells (the […] cell population) and adherent (ADH) cells were separated and counted using an electronic cell counter (Coulter Corporation, Hialea, Fla.). […]

CCCCCCCCCCCCCCOCC(O)COP(=O)(OC)OC (racemic) [Compound 3, Dimethyl 3-O-tetradecyl-rac-glycero-1-phosphate]
Maximum effect relative to 18:1 LPA: Toxic: Toxic
lowest concentration at which cytotoxic effects were observed (column Concentration for Max Effect): 30 µM

CCCCCCCC/C=C\CCCCCCCCOCC(COP(=O)(OC)OC)OC (racemic) [Compound 23, Dimethyl 1-O-oleyl-2-O-methyl-rac-glycero-1-phosphate]
Concentration for Max Effect: 30 µM
Maximum effect relative to 18:1 LPA: 17%

CCCCCCCC/C=C\CCCCCCCCOCC(COP(=O)(O)O)OC (racemic) [Compound 24, 3-O-Oleyl-2-O-methyl-rac-glycero-1-phosphate]
Emax: 100%
Concentration for Max Effect: 10 µM

CCCCCCCC/C=C\CCCCCCCC(=O)OCC(Br)COP(=O)(O)O (racemic) [Compound 37, 3-O-Oleoyl-2-deoxy-2-bromo-rac-glycero-1-phosphate]
Concentration for Max Effect: 30 µM
Maximum effect relative to 18:1 LPA: 75%

CCCCCCCC/C=C\CCCCCCCC(=O)OCC(COP(=O)(O)O)OC (racemic) [Compound 46, 3-O-Oleoyl-2-O-methyl-rac-glycero-1-phosphate]
Emax: 75%
Concentration for Max Effect: 30 µM

CCCCCCCC/C=C\CCCCCCCCOCC(COP(O)(=S)OCC(COCCCCCCCC/C=C\CCCCCCCC)OC)OC (racemic) [Compound 80, Bis(3-O-oleyl-2-O-methyl-rac-glyceryl)thiophosphate]
Concentration for Max Effect: 3 µM
Maximum effect relative to 18:1 LPA: 100%

CCCCCCCCCC(=O)OC[C@@H](O)COP(=O)(O)O [10:0 LPA, reference compound]
Concentration for Max Effect: 30 µM
Maximum effect relative to 18:1 LPA: 30%

CCCCCCCCCCCCCC(=O)OC[C@@H](O)COP(=O)(O)O [14:0 LPA, reference compound]
Concentration for Max Effect: 30 µM
Maximum effect relative to 18:1 LPA: 80%

CCCCCCCCCCCCCCCC(=O)OCC(O)COP(=O)(O)O (centres unmarked) [16:0 LPA, Palmitoyl-LPA, reference compound]
cells protected (5 (M, FIG. 5), medium alone 30%): about 42%
cells protected (15 (M, FIG. 5)): 63%
Concentration for Max Effect: 10 µM
Maximum effect relative to 18:1 LPA: 80%

CCCCCCCCCCCCCCOCC1CO1 (centres unmarked) [Compound 8, 1-O-Tetradecyl-glycidol]
Maximum effect relative to 18:1 LPA: Toxic: Toxic
lowest concentration at which cytotoxic effects were observed (column Concentration for Max Effect): 30 µM

CCCCCCCC/C=C\CCCCCCCC(=O)NCCOP(=O)(OC)OC [Compound 59, Dimethyl 2-amino-2-N-oleoyl-ethylphopshate]
Maximum effect relative to 18:1 LPA: Toxic: Toxic
lowest concentration at which cytotoxic effects were observed (column Concentration for Max Effect): 30 µM

CCCCCCCC/C=C\CCCCCCCC(=O)NC(C)COP(=O)(O)O (centres unmarked) [Compound 61, 2-Amino-2-N-oleoyl-propyl phosphate]
Concentration for Max Effect: 30 µM
Maximum effect relative to 18:1 LPA: 70%

CCCCCCCC/C=C\CCCCCCCCCCCCOP(=O)(O)O [Compound 71, Erucyl phosphate]
Concentration for Max Effect: 100 µM
Maximum effect relative to 18:1 LPA: 76%

CCCCCCCCCCCCCCCCCC(=O)OCC(O)COP(=O)(O)O (centres unmarked) [stearyl-LPA, reference compound]
cells protected (5 (M, FIG. 6)): 63%
cells protected (15 (M, FIG. 6)): 65%

Dimethyl 3-amino-N-oleoyl-propylphosphate [Compound 53]
Maximum effect relative to 18:1 LPA: Toxic: Toxic
lowest concentration at which cytotoxic effects were observed (column Concentration for Max Effect): 100 µM

Phosphatidylserine [Phosphatidylserine (PS)]
toxicity of lipid alone (PS alone, FIG. 2): slightly toxic

lysophosphatidyl serine [LPS, reference compound]
activity relative to 18:1-LPA (on a molar basis, FIG. 4): approximately 50%

phosphatidyl choline [PC]
cells survived (lipids alone added to culture medium, FIG. 3): about 25%
